Experimental data taken from ChEMBL document CHEMBL2046376, “Synthesis and antimicrobial activity of amide derivatives of polyether antibiotic-salinomycin” (2012).
Calls of active or inactive are those of the source.

How the values were obtained:
Format in all cases: functional
Staphylococcus aureus [1] = test: Antibacterial activity against Staphylococcus aureus ATCC 25923 after 18 hrs by twofold serial agar dilution technique; settings: ATCC 25923, 18 h
Staphylococcus aureus [2] = test: Antibacterial activity against hospital-acquired methicillin-sensitive Staphylococcus aureus 441/11 after 18 hrs by twofold serial agar dilution technique; settings: 441/11, 18 h
Staphylococcus aureus [3] = test: Antibacterial activity against Staphylococcus aureus ATCC 6538 after 18 hrs by twofold serial agar dilution technique; settings: ATCC 6538, 18 h
Escherichia coli [4] = test: Antibacterial activity against Escherichia coli NCTC 8196 after 18 hrs by twofold serial agar dilution technique
Staphylococcus aureus [5] = test: Antibacterial activity against hospital-acquired methicillin-resistant Staphylococcus aureus 452/11 after 18 hrs by twofold serial agar dilution technique; settings: 452/11, 18 h
Pseudomonas aeruginosa [6] = test: Antibacterial activity against Pseudomonas aeruginosa NCTC 6749 after 18 hrs by twofold serial agar dilution technique
[7] = system: Staphylococcus epidermidis; test: Antibacterial activity against Staphylococcus epidermidis ATCC 35984 assessed as zone of inhibition at 400 ug/disc after 18 hrs by disc diffusion method; settings: ATCC 35984, 18 h, read-out: DIZ
[8] = system: Staphylococcus epidermidis; test: Antibacterial activity against Staphylococcus epidermidis ATCC 35984 after 18 hrs by twofold serial agar dilution technique; settings: ATCC 35984, 18 h
Staphylococcus aureus [9] = test: Antibacterial activity against Staphylococcus aureus NCTC 4163 after 18 hrs by twofold serial agar dilution technique; settings: NCTC 4163, 18 h
[10] = system: Staphylococcus epidermidis; test: Antibacterial activity against Staphylococcus epidermidis ATCC 12228 after 18 hrs by twofold serial agar dilution technique; settings: ATCC 12228, 18 h
Staphylococcus aureus [11] = test: Antibacterial activity against hospital-acquired methicillin-sensitive Staphylococcus aureus 445/11 after 18 hrs by twofold serial agar dilution technique; settings: 445/11, 18 h
Candida albicans [12] = test: Antifungal activity against Candida albicans ATCC 90028 after 24 hrs by twofold serial agar dilution technique
Staphylococcus aureus [13] = test: Antibacterial activity against hospital-acquired methicillin-sensitive Staphylococcus aureus 446/11 after 18 hrs by twofold serial agar dilution technique; settings: 446/11, 18 h
Candida albicans [14] = test: Antifungal activity against Candida albicans ATCC 10231 after 24 hrs by twofold serial agar dilution technique
Staphylococcus aureus [15] = test: Antibacterial activity against hospital-acquired methicillin-sensitive Staphylococcus aureus 444/11 after 18 hrs by twofold serial agar dilution technique; settings: 444/11, 18 h
[16] = system: Bordetella bronchiseptica; test: Antibacterial activity against Bordetella bronchiseptica ATCC 4617 after 18 hrs by twofold serial agar dilution technique
Staphylococcus aureus [17] = test: Antibacterial activity against hospital-acquired methicillin-sensitive Staphylococcus aureus 447/11 after 18 hrs by twofold serial agar dilution technique; settings: 447/11, 18 h
Staphylococcus aureus [18] = test: Antibacterial activity against Staphylococcus aureus ATCC 29213 assessed as zone of inhibition at 400 ug/disc after 18 hrs by disc diffusion method; settings: ATCC 29213, 18 h, read-out: DIZ
Escherichia coli [19] = test: Antibacterial activity against Escherichia coli ATCC 10538 after 18 hrs by twofold serial agar dilution technique
Candida parapsilosis = test: Antifungal activity against Candida parapsilosis ATCC 22019 after 24 hrs by twofold serial agar dilution technique
Staphylococcus aureus [20] = test: Antibacterial activity against hospital-acquired methicillin-resistant Staphylococcus aureus 400/10 after 18 hrs by twofold serial agar dilution technique; settings: 400/10, 18 h
Staphylococcus aureus [21] = test: Antibacterial activity against Staphylococcus aureus ATCC 25923 assessed as zone of inhibition at 400 ug/disc after 18 hrs by disc diffusion method; settings: ATCC 25923, 18 h, read-out: DIZ
Staphylococcus aureus [22] = test: Antibacterial activity against hospital-acquired methicillin-sensitive Staphylococcus aureus 448/11 after 18 hrs by twofold serial agar dilution technique; settings: 448/11, 18 h
Staphylococcus aureus [23] = test: Antibacterial activity against hospital-acquired methicillin-resistant Staphylococcus aureus 401/10 after 18 hrs by twofold serial agar dilution technique; settings: 401/10, 18 h
Staphylococcus aureus [24] = test: Antibacterial activity against hospital-acquired methicillin-resistant Staphylococcus aureus 393/10 after 18 hrs by twofold serial agar dilution technique; settings: 393/10, 18 h
Pseudomonas aeruginosa [25] = test: Antibacterial activity against Pseudomonas aeruginosa ATCC 27853 after 18 hrs by twofold serial agar dilution technique
Staphylococcus aureus [26] = test: Antibacterial activity against Staphylococcus aureus NCTC 4163 assessed as zone of inhibition at 400 ug/disc after 18 hrs by disc diffusion method; settings: NCTC 4163, 18 h, read-out: DIZ
Staphylococcus aureus [27] = test: Antibacterial activity against hospital-acquired methicillin-resistant Staphylococcus aureus 450/11 after 18 hrs by twofold serial agar dilution technique; settings: 450/11, 18 h
Staphylococcus aureus [28] = test: Antibacterial activity against methicillin-resistant Staphylococcus aureus clinical isolate
[29] = system: Staphylococcus epidermidis; test: Antibacterial activity against Staphylococcus epidermidis ATCC 12228 assessed as zone of inhibition at 400 ug/disc after 18 hrs by disc diffusion method; settings: ATCC 12228, 18 h, read-out: DIZ
Staphylococcus aureus [30] = test: Antibacterial activity against Staphylococcus aureus ATCC 29213 after 18 hrs by twofold serial agar dilution technique; settings: ATCC 29213, 18 h
Staphylococcus aureus [31] = test: Antibacterial activity against hospital-acquired methicillin-resistant Staphylococcus aureus 482/11 after 18 hrs by twofold serial agar dilution technique; settings: 482/11, 18 h
Staphylococcus aureus [32] = test: Antibacterial activity against Staphylococcus aureus ATCC 6538 assessed as zone of inhibition at 400 ug/disc after 18 hrs by disc diffusion method; settings: ATCC 6538, 18 h, read-out: DIZ
Staphylococcus aureus [33] = test: Antibacterial activity against hospital-acquired methicillin-resistant Staphylococcus aureus 394/10 after 18 hrs by twofold serial agar dilution technique; settings: 394/10, 18 h
Staphylococcus aureus [34] = test: Antibacterial activity against hospital-acquired methicillin-resistant Staphylococcus aureus 481/11 after 18 hrs by twofold serial agar dilution technique; settings: 481/11, 18 h
Escherichia coli [35] = test: Antibacterial activity against Escherichia coli ATCC 25922 after 18 hrs by twofold serial agar dilution technique
Staphylococcus aureus [36] = test: Antibacterial activity against hospital-acquired methicillin-sensitive Staphylococcus aureus 440/11 after 18 hrs by twofold serial agar dilution technique; settings: 440/11, 18 h
Staphylococcus aureus [37] = test: Antibacterial activity against hospital-acquired methicillin-sensitive Staphylococcus aureus 443/11 after 18 hrs by twofold serial agar dilution technique; settings: 443/11, 18 h
Staphylococcus aureus [38] = test: Antibacterial activity against hospital-acquired methicillin-resistant Staphylococcus aureus 451/11 after 18 hrs by twofold serial agar dilution technique; settings: 451/11, 18 h
Staphylococcus aureus [39] = test: Antibacterial activity against hospital-acquired methicillin-resistant Staphylococcus aureus 399/10 after 18 hrs by twofold serial agar dilution technique; settings: 399/10, 18 h
Staphylococcus aureus [40] = test: Antibacterial activity against hospital-acquired methicillin-sensitive Staphylococcus aureus 449/11 after 18 hrs by twofold serial agar dilution technique; settings: 449/11, 18 h
Pseudomonas aeruginosa [41] = test: Antibacterial activity against Pseudomonas aeruginosa ATCC 15442 after 18 hrs by twofold serial agar dilution technique
Staphylococcus aureus [42] = test: Antibacterial activity against hospital-acquired methicillin-sensitive Staphylococcus aureus 442/11 after 18 hrs by twofold serial agar dilution technique; settings: 442/11, 18 h
Proteus vulgaris = test: Antibacterial activity against Proteus vulgaris NCTC 4635 after 18 hrs by twofold serial agar dilution technique

CC[C@@H](C(=O)[C@@H](C)[C@@H](O)[C@H](C)[C@@H]1O[C@@H]([C@@H](CC)C(=O)O)CC[C@@H]1C)[C@H]1O[C@]2(C=C[C@@H](O)[C@]3(CC[C@@](C)([C@H]4CC[C@](O)(CC)[C@H](C)O4)O3)O2)[C@H](C)C[C@@H]1C [SALINOMYCIN]
1 µg/mL: MIC (Staphylococcus aureus [5]) | MIC (Staphylococcus aureus [11]) | MIC (Staphylococcus aureus [13]) | MIC (Staphylococcus aureus [20]) | MIC (Staphylococcus aureus [23]) | MIC (Staphylococcus aureus [28]) | MIC (Staphylococcus aureus [34]) | MIC (Staphylococcus aureus [36]) | MIC (Staphylococcus aureus [39]) | MIC (Staphylococcus aureus [40])
28 mm: zone of inhibition at 400 µg/disc [29]
inactive: Activity (Escherichia coli [4]) | Activity (Pseudomonas aeruginosa [6]) | Activity (Candida albicans [12]) | Activity (Candida albicans [14]) | Activity [16] | Activity (Escherichia coli [19]) | Activity (Candida parapsilosis) | Activity (Pseudomonas aeruginosa [25]) | Activity (Escherichia coli [35]) | Activity (Pseudomonas aeruginosa [41]) | Activity (Proteus vulgaris)
30 mm: zone of inhibition at 400 µg/disc [7] | zone of inhibition at 400 µg/disc (Staphylococcus aureus [32])
29 mm: zone of inhibition at 400 µg/disc (Staphylococcus aureus [18])
31 mm: zone of inhibition at 400 µg/disc (Staphylococcus aureus [21])
33 mm: zone of inhibition at 400 µg/disc (Staphylococcus aureus [26])
2 µg/mL: MIC (Staphylococcus aureus [1]) | MIC (Staphylococcus aureus [2]) | MIC (Staphylococcus aureus [3]) | MIC [8] | MIC (Staphylococcus aureus [9]) | MIC [10] | MIC (Staphylococcus aureus [15]) | MIC (Staphylococcus aureus [17]) | MIC (Staphylococcus aureus [22]) | MIC (Staphylococcus aureus [24]) | MIC (Staphylococcus aureus [27]) | MIC (Staphylococcus aureus [30]) | MIC (Staphylococcus aureus [31]) | MIC (Staphylococcus aureus [33]) | MIC (Staphylococcus aureus [37]) | MIC (Staphylococcus aureus [38]) | MIC (Staphylococcus aureus [42])

CC[C@@H](C(=O)[C@@H](C)[C@@H](O)[C@H](C)[C@@H]1O[C@@H]([C@@H](CC)C(=O)NCCCN2CCCCC2)CC[C@@H]1C)[C@H]1O[C@]2(C=C[C@@H](O)[C@]3(CC[C@@](C)([C@H]4CC[C@](O)(CC)[C@H](C)O4)O3)O2)[C@H](C)C[C@@H]1C
64 µg/mL: MIC (Staphylococcus aureus [2]) | MIC (Staphylococcus aureus [13]) | MIC (Staphylococcus aureus [20]) | MIC (Staphylococcus aureus [23]) | MIC (Staphylococcus aureus [24]) | MIC (Staphylococcus aureus [27]) | MIC (Staphylococcus aureus [31]) | MIC (Staphylococcus aureus [33]) | MIC (Staphylococcus aureus [34]) | MIC (Staphylococcus aureus [39])
12 mm: zone of inhibition at 400 µg/disc (Staphylococcus aureus [26])
128 µg/mL: MIC (Staphylococcus aureus [1]) | MIC (Staphylococcus aureus [3]) | MIC (Staphylococcus aureus [9]) | MIC [10] | MIC (Staphylococcus aureus [30])
256 µg/mL: MIC [8]
inactive: Activity (Escherichia coli [4]) | Activity (Pseudomonas aeruginosa [6]) | Activity (Candida albicans [12]) | Activity (Candida albicans [14]) | Activity [16] | Activity (Escherichia coli [19]) | Activity (Candida parapsilosis) | Activity (Pseudomonas aeruginosa [25]) | Activity (Escherichia coli [35]) | Activity (Pseudomonas aeruginosa [41]) | Activity (Proteus vulgaris)
13 mm: zone of inhibition at 400 µg/disc (Staphylococcus aureus [32])
32 µg/mL: MIC (Staphylococcus aureus [5]) | MIC (Staphylococcus aureus [11]) | MIC (Staphylococcus aureus [15]) | MIC (Staphylococcus aureus [17]) | MIC (Staphylococcus aureus [22]) | MIC (Staphylococcus aureus [36]) | MIC (Staphylococcus aureus [37]) | MIC (Staphylococcus aureus [38]) | MIC (Staphylococcus aureus [40]) | MIC (Staphylococcus aureus [42])
11 mm: zone of inhibition at 400 µg/disc [7] | zone of inhibition at 400 µg/disc (Staphylococcus aureus [18]) | zone of inhibition at 400 µg/disc (Staphylococcus aureus [21]) | zone of inhibition at 400 µg/disc [29]

CC[C@@H](C(=O)[C@@H](C)[C@@H](O)[C@H](C)[C@@H]1O[C@@H]([C@@H](CC)C(=O)Nc2ccccc2)CC[C@@H]1C)[C@H]1O[C@]2(C=C[C@@H](O)[C@]3(CC[C@@](C)([C@H]4CC[C@](O)(CC)[C@H](C)O4)O3)O2)[C@H](C)C[C@@H]1C
22 mm: zone of inhibition at 400 µg/disc [29]
19 mm: zone of inhibition at 400 µg/disc (Staphylococcus aureus [26])
18 mm: zone of inhibition at 400 µg/disc (Staphylococcus aureus [21])
2 µg/mL: MIC (Staphylococcus aureus [1]) | MIC (Staphylococcus aureus [2]) | MIC (Staphylococcus aureus [3]) | MIC (Staphylococcus aureus [9]) | MIC [10] | MIC (Staphylococcus aureus [11]) | MIC (Staphylococcus aureus [13]) | MIC (Staphylococcus aureus [15]) | MIC (Staphylococcus aureus [17]) | MIC (Staphylococcus aureus [22]) | MIC (Staphylococcus aureus [30]) | MIC (Staphylococcus aureus [36]) | MIC (Staphylococcus aureus [37]) | MIC (Staphylococcus aureus [40]) | MIC (Staphylococcus aureus [42])
21 mm: zone of inhibition at 400 µg/disc (Staphylococcus aureus [18])
inactive: Activity (Escherichia coli [4]) | Activity (Pseudomonas aeruginosa [6]) | Activity (Candida albicans [12]) | Activity (Candida albicans [14]) | Activity [16] | Activity (Escherichia coli [19]) | Activity (Candida parapsilosis) | Activity (Pseudomonas aeruginosa [25]) | Activity (Escherichia coli [35]) | Activity (Pseudomonas aeruginosa [41]) | Activity (Proteus vulgaris)
20 mm: zone of inhibition at 400 µg/disc [7] | zone of inhibition at 400 µg/disc (Staphylococcus aureus [32])
4 µg/mL: MIC (Staphylococcus aureus [5]) | MIC [8] | MIC (Staphylococcus aureus [20]) | MIC (Staphylococcus aureus [23]) | MIC (Staphylococcus aureus [24]) | MIC (Staphylococcus aureus [27]) | MIC (Staphylococcus aureus [31]) | MIC (Staphylococcus aureus [33]) | MIC (Staphylococcus aureus [34]) | MIC (Staphylococcus aureus [38]) | MIC (Staphylococcus aureus [39])
